Here are results for 3 molecules from patent publication US7790160B2, “Method of treating CD30 positive lymphomas” (Medarex, Inc., priority 2004, dated 2010).

Entries after “also recorded” stand apart in the source; their conditions may differ. Where a SMILES comes first, the peptide text is derived from it. The star is where a group is joined. Cbz = O=C(OCc1ccccc1)*

Data set [1] deals with L540 cells. Kind of data set: Annexin V binding assay (annexinV-FITC staining, FACS). Format: cell-based, human. To be noted: each agent alone, subtoxic concentrations. The protocol:
FIG. 1: Induction of apoptosis in L540 cells after treatment with 5F11 and MG132 L540 cells were cultured for 16 h with PBS (control), crosslinked 5F11, MG132 or a combination of 5F11 and MG132. The apoptotic cells were labeled by annexinV-FITC staining and the percentage of viable and apoptotic cells is given as estimated in FACS analysis. The results of three independent experiments are shown.
2×10^5 L540 cells were incubated (in triplicate) either with 5F11/GaH, bortezomib, or both, or in plain medium as described above at 37° C. for 12 h. To detect apoptotic cells, the translocation of phosphatidylserine to the outer leaflet of the plasma membrane was determined by flow cytometry (FACS calibur Bengton & Dickinson Flow Cytometer) after staining with annexin V conjugated to fluorescein as recommended (Annexin V-FITC apoptosis detection kit I, BD Bioscience, USA). Triplicateswere used to calculate means and standard deviations.

Data set [2] concerns REH cells. Nature of the data set: XTT viability assay, CD30-negative control line. To be noted: REH cells (do not express CD30), bortezomib alone. A general note: Tetrazolium dyes change colour on reduction, which living cells bring about.
Description: (§5) An XTT-assay showing viability of the Hodgkin cell lines L540 (A), L428 (B) and the ALCL line Karpas299 (C) and the CD30 negative cell line REH (E) after exposure to increasing amounts of bortezomib in the presence (diamond) or absence (triangle) of 5F11.
In data set [3] the test system is Karpas 299 cells. Kind of data set: XTT viability assay. The settings on record: Karpas299, 5F11 + GaH pre-incubated 30 minutes, versus absence of 5F11, 48 hours.
In data set [4] the test system is c-flip in L428 cells. Kind of data set: SDS-PAGE and Western blotting. The settings on record: CD30 stimulation with 5F11, co-incubation with bortezomib for 6, 8 and 16 hours. It counts as cell-based, human. The protocol:
(§1) Whole cell protein extracts were prepared in 1× Laemmli solution (10 μg) were separated using sodium dodecyl sulfate polyacrylamide gel electrophoresis (SDS-PAGE) using 4-15% gels. Proteins were transferred to a nitrocellulose membrane (Hybond-C, Amersham Pharmacia Biotech Inc., Freiburg, Germany) and blocked with Roti-Block (Roth, Karlsruhe, Germany) for 1 h at room temperature. Immunoblots were incubated with the primary antibodies obtained from the Apoptosis Sampler Kits I and II (BD Bioscience, CA) in PBS with 10% fetal calf serum as recommended. The c-flip specific antibody was purchased from Sigma (F-6550). Bound antibodies were detected with horseradish peroxidase-conjugated secondary donkey-anti-mouse or rabbit-IgG mAb (Dianova, Hamburg, Germany) or horseradish peroxidaseconjugated goat-anti-mouse IgG (Dianova) diluted 1/10000. The proteins were visualized using the ECL Western blotting detection reagents (Amersham Pharmacia) according to manufacturers instructions.

Data set [5] deals with c-flip in L540 cells. Kind of data set: SDS-PAGE and Western blotting. Format: cell-based, human. The settings on record: CD30 stimulation with 5F11, co-incubation with bortezomib for 6, 8 and 16 hours. The protocol:
as §1
(In general: Immunoblotting shows a protein as a band on a membrane.)

Data set [6] relates to NF-κB-responsive luciferase reporter gene in L428 cells. Nature of the data set: Transient transfection and luciferase reporter gene assay. It counts as cell-based, human. To be noted: L428 transfected with pNF-κB-luc. The protocol:
L428 cells were transfected with either the reporter constructs pCMV-luc (transfection control) or pNF-κB-luc (bar 2-4) or pNF-κB-luc together with the expression vector IkBM (bar 5-7). The transfection efficacy was about 10% and the total amount of DNA was kept constant. After an over night recovery period transfectants were treated with PBS (basal), 5F11 or bortezomib for 24 hours. The luciferase activity (RLU) of the cells were measured and is given to indicate the relative levels of NF-κB-dependent promoter activity.
5×10^6 L428 cells in 1 ml medium were transiently transfected by means of electroporation with 10 μg NF-κB-luc, IkBaM and CMV-GFP. Cells were seeded into six-well plates with additional 2 ml of plain medium. After 24 h incubation at 37° C., GFP transfected cells were examined for green flourescence as indicator of transfection efficacy, which varied from 5% to 10%. Cells were incubated either with 20 μg/ml 5F11+100 μg/ml GaH for 2 h, or with 10 ng/ml bortezomib or both or plain media for 12 h at 37° C. After harvesting the cells were washed twice in PBS (phosphate buffered saline).
Lysis was performed using 1 ml ice-cold reporter lysis buffer (Promega), and lysates were frozen at −70° C. for 1 hour. Luciferase activity was measured using 30 μl lysate in a 96-well luminometry-plate and analyzed by luminometry. Untreated cells, transfected with the reporter gene were used to obtain baseline NF-κB-activity. All assays were done in triplicate to obtain means and standard deviations.
A general note: A reporter such as luciferase makes a cellular process visible.

Data set [7] concerns bcl-2, bax, TRADD and FADD. Nature of the data set: SDS-PAGE and Western blotting of candidate proteins related to NF-κB activation. It counts as cell-based, human. To be noted: following 5F11 crosslinking or bortezomib treatment. The protocol:
as §1

The test system of data set [8] is NF-κB subunit p65 in L540 cells. Nature of the data set: Detection of NF-κB subunit p65 with indirect immunofluorescence. Format: cell-based, human. To be noted: for expression level and nuclear localisation of NF-κB (p65 staining): L540 cells, crosslinked 5F11 or bortezomib. The protocol: (§2) Cytospins were provided (1 min at 1000 U/min) to determine the effect of 5F11 and/or bortezomib on apoptosis and NFκB-activation in L428 and L540 cells on the single cell level. 2×10^5 cells were seeded in six-well microtiter plates in 3 ml plain media (control) or with 5F11+GaH (5 μg/25 μg per ml) or bortezomib (10 nM) or both. Incubation time was 30 min for 5F11, 1 h for crosslinking GaH and at least six hours for bortezomib, all at 37° C. The slides were dried overnight at room temperature and fixed using ice-cold acteone (30 sec incubation). The TUNEL assay was performed using the In Situ Cell Death Detection Kit, TMR red (Roche) according to the manufacturers instructions. Finally, cells were mounted with VECTASHIELD Mounting Medium containing DAPI (Vector Laboratories, Burlingame, Calif.) or stained with an rabbit-anti-p65 antibody (Santa Cruz, 10 nM) and a second FITC-labeled mouse-anti-rabbit antibody (10 nM). Cytospin preparations were analyzed by fluorescence microscopy.
In order to exclude non-specific antibody binding, slides of untreated cells were stained either with rabbit-anti-p65-IgG, or FITC-conjugated mouse-anti-rabbit-IgG, or DAPI.

Data set [9] concerns subcutaneous L540Cy Hodgkin tumors. Nature of the data set: Xenograft model of human HD. To be noted: SCID mice; for tumor growth compared to the control group receiving PBS: 100 μg 5F11 i.p., 10 ng bortezomib i.v. 6 hours later, 4 injections; for tumor growth in the weeks after treatment: several weeks after the 4 injections. It counts as in vivo. As for the experimental part:
FIG. 3: Effect of 5F11 and bortezomib on the tumor growth of subcutaneous L540Cy Hodgkin tumors in SCID mice. The mice were randomly divided into four groups when the L540 derived tumors reached a volume of about 100 mm3 to receive PBS, 5F11 (100 μg), bortezomib (10 ng) or the combination of 5F11 and bortezomib. The tumor volume of each mouse is given. The arrows indicate the days of treatment.
The xenograft model of human HD has been described previously (17). Subcutaneous solid L540Cy tumors were established by injection of L540Cy cells (1×10^7) resuspended in 200 μL PBS into the right flank of pathogen-free severe combined immunodeficiency (SCID) mice (FOX CHASE SCID; Taconic M&B A/S, Ry, Denmark). Tumor development was measured every 3 days and the tumor volume was determined using the formula (length×width×height/2). Animals with established tumors of about 100 mm^3 were divided randomly into four groups, which received 100 μg 5F11 (in 200 μL PBS intraperitoneally) and 6 hours later 10 ng bortezomib i.v. by tail vein or each agent alone for a total of 4 injections. Control mice received PBS only. The experiment was stopped and the mice killed when the median […] in the control group exceeded 2500 mm^3 (day 50). The treatment and control groups consisted of 4 animals each and results were confirmed by repeating the experiments.

Data set [10] deals with L540 cells. Nature of the data set: XTT viability assay. It counts as cell-based, human. From the text: (§3) Each measurement was done in triplicate.
Data set [11] relates to L428 cells. Kind of data set: XTT viability assay. Format: cell-based, human.
Description: as §3

The test system of data set [12] is NF-κB DNA binding in L540 cells. Kind of data set: Electrophoretic mobility shift assay (EMSA). It counts as cell-based, human. The settings on record: L540 nuclear extract, crosslinked antibody. As for the experimental part:
(§4) Electrophoretic mobility shift assays (EMSA) were performed to visualize binding of NF-κB to DNA. Nuclear protein extract (5 μg; 20 mM HEPES, pH 7.9, 400 mM NaCl, 1 mM EDTA, 1 mM EGTA) from cells treated with different antibodies were incubated with ^32P-labeled oligonucleotides with the NF-κB binding sequence (Santa Cruz) for 30 minutes at room temperature. The DNA/protein complexes were separated using electrophoresis on 6% native polyacrylamide gels.

Data set [13] relates to NF-κB DNA binding in L428 cells. Kind of data set: Electrophoretic mobility shift assay (EMSA). It counts as cell-based, human. To be noted: L428 nuclear extract, crosslinked antibody. The protocol: as §4
The test system of data set [14] is L428 cells. The settings on record: 5F11 alone, even at higher concentrations (ref. 17); cited from earlier work.
The subject of data set [15] is REH cells.
Description: as §5
For data set [16], the system named is L540 cells. Kind of data set: TUNEL assay with 5F11 binding staining (GaH-FITC). Format: cell-based, human. The protocol:
as §2
The cellular reponse to 5F11 in the partial apoptosis-resistent HD-derived cell line L540 on the single cell level was analyzed. To visualize binding of 5F11 and apoptosis simultaneously, L540 cells were incubated with 5F11 and a FITC labeled crosslinking goat-anti human antibody before performing a TUNEL assay. […]

For the molecule `CC(C)C[C@@H](C=O)NC(=O)[C@H](CC(C)C)NC(=O)[C@H](CC(C)C)NC(=O)OCc1ccccc1` [MG132, carbobenzoxyl-leucinyl-leucynil-leucynal, reference compound] (Cbz-Leu-Leu-Leu-aldehyde), the “enhancement of apoptosis compared to the control (annexin-V staining and FACS analysis)” value in data set [1] is on record as “did not enhance apoptosis”.

For `CC(C)C[C@H](NC(=O)[C@H](Cc1ccccc1)NC(=O)c1cnccn1)B(O)O` [bortezomib, reference compound], in data set [2], the “cytotoxicity (XTT)” value is “killed by bortezomib in a dose dependent manner”. Also, in data set [3], the “IC50 of bortezomib in the presence of 5F11” value (“IC50 of bortezomib” for short) is recorded as “decreased”. Besides, in [4], the “expression of c-flip (Western blotting)” value was “downregulation”. Further, the “expression of c-flip (Western blotting)” value in data set [5] was “downregulation”. Moreover, in data set [6], the “5F11-induced activation of the NF-κB reporter gene in the presence of bortezomib” value is “supressed” and the “basal activity of the NF-κB reporter” value is recorded as “reduced”. Moreover, in data set [7], the “bcl-2 and bax expression (Western blotting)” value is recorded as “Only minor changes”; the “expression levels of TRADD and FADD (Western blotting)” value is recorded as “remained unaltered”. The “5F11-induced NF-κB staining increase and nuclear accumulation in the presence of bortezomib” value in data set [8] (L540, bortezomib given 30 minutes after 5F11 stimulation, observed after 6 and 8 hours) is “inhibited”. For the same molecule, in data set [8], the “expression level and nuclear localisation of NF-κB (p65 staining)” value was “exclusion of NF-κB from the cell nuclei”. Further, in data set [9], the “tumor growth compared to the control group receiving PBS” value was “significantly delayed tumor growth” and the “tumor growth in the weeks after treatment” value is given as “tumor progression”. Also, the “IC50 of bortezomib” value in [10] (L540, 5F11 + GaH pre-incubated 30 minutes, versus absence of 5F11, 48 hours) is recorded as “decreased”. Also, the “cell viability (XTT)” value in data set [10] (L540, bortezomib 25 ng/ml, with or without pre-treatment with subtoxic 5F11 + GaH, 48 h) is listed as “minimal reduction of viability”. In addition, the “IC50 of bortezomib” value in [11] (L428, 5F11 + GaH pre-incubated 30 minutes, versus absence of 5F11, 48 hours) is “decreased”.

B1: 5F11: fully human monoclonal antibody directed against CD30; VH SEQ ID NO: 10, VL SEQ ID NO: 12 (antibody, listed as Homo sapiens, V domains shown)
VH: QVQLQQWGAGLLKPSETLSLTCAVYGGSFSAYYWSWIRQPPGKGLEWIGDINHGGGTNYNPSLKSRVTISVDTSKNQFSLKLNSVTAADTAVYYCASLTAYWGQGSLVTVSS
VL: DIQMTQSPTSLSASVGDRVTITCRASQGISSWLTWYQQKPEKAPKSLIYAASSLQSGVPSRFSGSGSGTDFTLTISSLQPEDFATYYCQQYDSYPITFGQGTRLEIK
Turning to B1, the “DNA-binding activity of NF-κB (EMSA)” value in data set [12] was “enhanced DNA binding”. Moreover, the “DNA-binding activity of NF-κB (EMSA)” value in data set [13] is on record as “enhanced DNA binding”. For the same molecule, the “expression of c-flip (Western blotting)” value in data set [4] is “induced strongly”. Further, in data set [5], the “expression of c-flip (Western blotting)” value was “induced strongly”. Moreover, the “activation of the NF-κB reporter gene (luciferase activity)” value in data set [6] (stimulation with 5F11) is “about two-fold”. For the same molecule, in data set [7], the “bcl-2 and bax expression (Western blotting)” value is listed as “Only minor changes”; the “expression levels of TRADD and FADD (Western blotting)” value is recorded as “remained unaltered”. For the same molecule, the “sensitivity of L428 cells to 5F11” value in [14] is listed as “resistant”. Besides, the “expression level and nuclear localisation of NF-κB (p65 staining)” value in data set [8] is listed as “increased; also recorded: nuclear accumulation”. Besides, the “effect of pre-incubation with 5F11 on the cytotoxic potential of bortezomib” value in data set [15] is “no effect”. Further, the “enhancement of apoptosis compared to the control (annexin-V staining and FACS analysis)” value in [1] was “did not enhance apoptosis”. For the same molecule, the “binding of 5F11 (staining with GaH-FITC)” value in data set [16] (L540 cells incubated with 5F11 and FITC labeled crosslinking goat-anti human antibody) was “All L540 cells were stained”. Further, in data set [16] (L540 cells, 5F11 crosslinked with GaH, subtoxic concentrations in the combination), the “apoptosis on the single cell level (TUNEL assay)” value is recorded as “only a subset of the cells were rendered apoptotic”. In data set [9], the “tumor growth compared to the control group receiving PBS” value is reported as “significantly delayed tumor growth” and the “tumor growth in the weeks after treatment” value was “tumor progression”. Besides, the “enhancement of the cytotoxic activity of bortezomib, reversed sequence” value in [11] (L428 first incubated with bortezomib for 30 minutes, then with the antibody) is “does not increase; also recorded: did not enhance”.
